Experimental data reported in patent publication US9809587B2, “Pesticidally active heterocyclic derivatives with sulphur containing substituents” (Syngenta Participations AG, priority 2014, dated 2017).

How the values were obtained:
Assay type in all cases: in vivo
[1] = system: Plutella xylostella (Diamond Back Moth); assay: Plutella xylostella (diamond back moth), treated artificial diet; conditions: 120 h, application rate of 200 ppm, L2 larvae on artificial diet, 5 days after infestation, read-out: effect in at least one of the two categories (mortality or growth inhibition)
Procedure: Example B6: Plutella xylostella (Diamond Back Moth)
(§1) 24-well microtiter plates with artificial diet were treated with aqueous test solutions prepared from 10′000 ppm DMSO stock solutions by pipetting. After drying, the plates were infested with L2 larvae (10 to 15 per well). The samples were assessed for mortality and growth inhibition in comparison to untreated samples 5 days after infestation.
The following compounds gave an effect of at least 80% in at least one of the two categories (mortality or growth inhibition) at an application rate of 200 ppm: […]

[2] = system: Myzus persicae (Green Peach Aphid); assay: Myzus persicae (green peach aphid), sprayed sunflower leaf discs; conditions: foliar, 144 h, application rate of 200 ppm, mixed ages on sunflower leaf discs, 6 days after infestation
Procedure: Example B4: Myzus persicae (Green Peach Aphid)
(§2) Sunflower leaf discs were placed on agar in a 24-well microtiter plate and sprayed with aqueous test solutions prepared from 10′000 ppm DMSO stock solutions. After drying, the leaf discs were infested with an aphid population of mixed ages. The samples were assessed for mortality 6 days after infestation.

[3] = system: Euschistus heros (Neotropical Brown Stink Bug); assay: Euschistus heros (neotropical brown stink bug), sprayed soybean leaf; conditions: 120 h, application rate of 200 ppm, N-2 nymphs on soybean leaf, 5 days after infestation
Procedure: Example B3: Euschistus heros (Neotropical Brown Stink Bug)
Soybean leaf on agar in 24-well microtiter plates were sprayed with aqueous test solutions prepared from 10′000 ppm DMSO stock solutions. After drying the leaf were infested with N-2 nymphs. The samples were assessed for mortality in comparison to untreated samples 5 days after infestation.

[4] = system: Diabrotica balteata (Corn Root Worm); assay: Diabrotica balteata (corn root worm), sprayed maize sprouts; conditions: 96 h, application rate of 200 ppm, L2 larvae on maize sprouts, 4 days after infestation
Procedure: Example B2: Diabrotica balteata (Corn Root Worm)
as §1, with “Maize sprouts, placed on an agar layer in 24-well” for “24-well”, “plates” for “plates with artificial diet”, “spraying.” for “pipetting.”, “(6” for “(10”, “10” for “15”, “4” for “5”

[5] = system: Myzus persicae (Green Peach Aphid); assay: Myzus persicae (green peach aphid), roots of pea seedlings in test solution; conditions: 144 h, test rate of 24 ppm, roots of infested pea seedlings in test solution, 6 days
Procedure: Example B5: Myzus persicae (Green Peach Aphid)
Roots of pea seedlings infested with an aphid population of mixed ages were placed directly in the aqueous test solutions prepared from 10′000 DMSO stock solutions. The samples were assessed for mortality 6 days after placing seedlings in test solutions.

[6] = system: Spodoptera littoralis (Egyqptian Cotton Leaf Worm); assay: Spodoptera littoralis (Egyptian cotton leaf worm), compound in agar taken up by lettuce roots; conditions: 144 h, test rate of 12.5 ppm, uptake by lettuce roots from agar, 6 days after infestation, read-out: effect in at least one of the three categories (mortality, anti-feedancy, or growth inhibition)
Description: Example B8: Spodoptera littoralis (Egyqptian Cotton Leaf Worm)
Test compounds were applied by pipette from 10′000 ppm DMSO stock solutions into 24-well plates and mixed with agar. Lettuce seeds were placed on the agar and the multi well plate was closed by another plate which contains also agar. After 7 days the roots have absorbed the compound and the lettuce has grown into the lid plate. The lettuce leafs were now cut off into the lid plate. Spodoptera eggs were pipetted through a plastic stencil on a humid gel blotting paper and the plate closed with it. The samples were assessed for mortality, anti-feedant effect and growth inhibition in comparison to untreated samples 6 days after infestation.
The following compounds gave an effect of at least 80% in at least one of the three categories (mortality, anti-feedancy, or growth inhibition) at a test rate of 12.5 ppm: […]

[7] = system: Spodoptera littoralis (Egyqptian Cotton Leaf Worm); assay: Spodoptera littoralis (Egyptian cotton leaf worm), sprayed cotton leaf discs; conditions: foliar, 72 h, application rate of 200 ppm, L1 larvae on cotton leaf discs, 3 days after infestation
Procedure: Example B7: Spodoptera littoralis (Egyqptian Cotton Leaf Worm)
Cotton leaf discs were placed on agar in 24-well microtiter plates and sprayed with aqueous test solutions prepared from 10′000 ppm DMSO stock solutions. After drying the leaf discs were infested with five L1 larvae. The samples were assessed for mortality, anti-feedant effect, and growth inhibition in comparison to untreated samples 3 days after infestation. Control of Spodoptera littoralis by a test sample is when at least one of mortality, anti-feedant effect, and growth inhibition is higher than the untreated sample.

[8] = system: Bemisia tabaci (Cotton White Fly); assay: Bemisia tabaci (cotton white fly), sprayed cotton leaf discs; conditions: foliar, 144 h, application rate of 200 ppm, adult white flies on cotton leaf discs, 6 days after incubation
Procedure: Example B1: Bemisia tabaci (Cotton White Fly)
Cotton leaf discs were placed on agar in 24-well microtiter plates and sprayed with aqueous test solutions prepared from 10′000 ppm DMSO stock solutions. After drying the leaf discs were infested with adult white flies. The samples were checked for mortality 6 days after incubation.

[9] = system: Frankliniella occidentalis (Western Flower Thrips); assay: Frankliniella occidentalis (western flower thrips), sprayed sunflower leaf discs; conditions: foliar, 168 h, application rate of 200 ppm, mixed ages on sunflower leaf discs, 7 days after infestation
Procedure: Example B11: Frankliniella occidentalis (Western Flower Thrips)
as §2, with “in” for “in a”, “plates” for “plate”, “[…]” for “10′000 ppm”, “drying” for “drying,”, “a Frankliniella” for “an aphid”, “7” for “6”

CCS(=O)(=O)c1cc(-c2cncc(Cl)c2)cnc1-c1nc2cc(C(F)(F)F)ncc2n1C [Compound P3]
≥ 80%: percent effect (mortality or growth inhibition) at 200 ppm [1] | mortality at 200 ppm [2] | mortality at 200 ppm [3] | mortality at 200 ppm [4] | mortality at 24 ppm [5]

CCS(=O)(=O)c1cc(-c2cnn(C)c2)cnc1-c1nc2cc(C(F)(F)F)ncc2n1C [Compound P6]
≥ 80%: percent effect (mortality or growth inhibition) at 200 ppm [1] | mortality at 200 ppm [2] | percent control (mortality, anti-feedancy or growth inhibition) at 12.5 ppm [6] | percent control (mortality, anti-feedant effect or growth inhibition) at 200 ppm [7] | mortality at 200 ppm [3] | mortality at 200 ppm [4] | mortality at 24 ppm [5] | mortality at 200 ppm [8]

CCS(=O)(=O)c1cc(-c2cnc(OC)nc2)cnc1-c1nc2cc(C(F)(F)F)ncc2n1C [Compound P9]
≥ 80%: percent effect (mortality or growth inhibition) at 200 ppm [1] | mortality at 200 ppm [2] | percent control (mortality, anti-feedant effect or growth inhibition) at 200 ppm [7] | mortality at 24 ppm [5]

CCS(=O)(=O)c1cc(-c2ncc(C)cn2)cnc1-c1nc2cc(C(F)(F)F)ncc2n1C [Compound P22]
≥ 80%: percent effect (mortality or growth inhibition) at 200 ppm [1] | mortality at 200 ppm [2] | percent control (mortality, anti-feedancy or growth inhibition) at 12.5 ppm [6] | percent control (mortality, anti-feedant effect or growth inhibition) at 200 ppm [7] | mortality at 200 ppm [3] | mortality at 200 ppm [4] | mortality at 24 ppm [5] | mortality at 200 ppm [8]

CCS(=O)(=O)c1cc(-n2ccccc2=O)cnc1-c1nc2cc(C(F)(F)F)ncc2n1C [Compound P26]
≥ 80%: percent effect (mortality or growth inhibition) at 200 ppm [1] | mortality at 200 ppm [2] | mortality at 200 ppm [3] | mortality at 200 ppm [4] | mortality at 24 ppm [5]

CCS(=O)(=O)c1cc(-c2ncccc2Cl)cnc1-c1nc2cc(C(F)(F)F)ncc2n1C [Compound P32]
≥ 80%: percent effect (mortality or growth inhibition) at 200 ppm [1] | mortality at 200 ppm [2] | percent control (mortality, anti-feedancy or growth inhibition) at 12.5 ppm [6] | percent control (mortality, anti-feedant effect or growth inhibition) at 200 ppm [7] | mortality at 200 ppm [3] | mortality at 200 ppm [4] | mortality at 200 ppm [9]

CCS(=O)(=O)c1cc(-c2ccnnc2)cnc1-c1nc2cc(C(F)(F)F)ncc2n1C [Compound P33]
≥ 80%: mortality at 200 ppm [2] | mortality at 200 ppm [3] | mortality at 200 ppm [4] | mortality at 24 ppm [5] | mortality at 200 ppm [8]

CCS(=O)(=O)c1cc(-c2cccn3ncnc23)cnc1-c1nc2cc(C(F)(F)F)ncc2n1C [Compound P34]
≥ 80%: percent effect (mortality or growth inhibition) at 200 ppm [1] | mortality at 200 ppm [2] | percent control (mortality, anti-feedant effect or growth inhibition) at 200 ppm [7] | mortality at 200 ppm [3] | mortality at 200 ppm [4] | mortality at 24 ppm [5]

CCS(=O)(=O)c1cc(-c2cnc3nc(C)ccn23)cnc1-c1nc2cc(C(F)(F)F)ncc2n1C [Compound P37]
≥ 80%: percent effect (mortality or growth inhibition) at 200 ppm [1] | mortality at 200 ppm [2] | mortality at 200 ppm [3] | mortality at 200 ppm [4] | mortality at 24 ppm [5]

CCS(=O)(=O)c1cc(-c2ccnc(C)c2)cnc1-c1nc2cc(C(F)(F)F)ncc2n1C [Compound P53]
≥ 80%: percent effect (mortality or growth inhibition) at 200 ppm [1] | mortality at 200 ppm [2] | percent control (mortality, anti-feedancy or growth inhibition) at 12.5 ppm [6] | percent control (mortality, anti-feedant effect or growth inhibition) at 200 ppm [7] | mortality at 200 ppm [3] | mortality at 24 ppm [5]

CCS(=O)(=O)c1cc(-c2cnc(N)nc2C)cnc1-c1nc2cc(C(F)(F)F)ncc2n1C [Compound P58]
≥ 80%: percent effect (mortality or growth inhibition) at 200 ppm [1] | mortality at 200 ppm [2] | mortality at 200 ppm [3] | mortality at 200 ppm [4] | mortality at 24 ppm [5]

CCS(=O)(=O)c1cc(-c2cncs2)cnc1-c1nc2cc(C(F)(F)F)ncc2n1C [Compound P60]
≥ 80%: percent effect (mortality or growth inhibition) at 200 ppm [1] | mortality at 200 ppm [2] | percent control (mortality, anti-feedant effect or growth inhibition) at 200 ppm [7] | mortality at 200 ppm [3] | mortality at 200 ppm [4] | mortality at 24 ppm [5]

CCS(=O)(=O)c1cc(-c2ncncc2F)cnc1-c1nc2cc(C(F)(F)F)ncc2n1C [Compound P61]
≥ 80%: percent effect (mortality or growth inhibition) at 200 ppm [1] | mortality at 200 ppm [2] | percent control (mortality, anti-feedancy or growth inhibition) at 12.5 ppm [6] | percent control (mortality, anti-feedant effect or growth inhibition) at 200 ppm [7] | mortality at 200 ppm [3] | mortality at 200 ppm [4] | mortality at 24 ppm [5]

CCS(=O)(=O)c1cc(-c2cncc(C#N)c2)cnc1-c1nc2cc(C(F)(F)F)ncc2n1C [Compound P67]
≥ 80%: percent effect (mortality or growth inhibition) at 200 ppm [1] | mortality at 200 ppm [2] | mortality at 200 ppm [3] | mortality at 200 ppm [4] | mortality at 24 ppm [5] | mortality at 200 ppm [8]

CCS(=O)(=O)c1cc(-n2cccn2)cnc1-c1nc2cc(C(F)(F)F)ncc2n1C [Compound P84]
≥ 80%: percent effect (mortality or growth inhibition) at 200 ppm [1] | mortality at 200 ppm [2] | percent control (mortality, anti-feedancy or growth inhibition) at 12.5 ppm [6] | percent control (mortality, anti-feedant effect or growth inhibition) at 200 ppm [7] | mortality at 200 ppm [3] | mortality at 200 ppm [4] | mortality at 24 ppm [5]

CCS(=O)(=O)c1cc(-c2ccc(Cl)nc2)cnc1-c1nc2cc(C(F)(F)F)ncc2n1C [Compound P96]
≥ 80%: percent effect (mortality or growth inhibition) at 200 ppm [1] | mortality at 200 ppm [2] | percent control (mortality, anti-feedancy or growth inhibition) at 12.5 ppm [6] | percent control (mortality, anti-feedant effect or growth inhibition) at 200 ppm [7] | mortality at 200 ppm [3] | mortality at 200 ppm [4] | mortality at 200 ppm [8] | mortality at 200 ppm [9]

CCS(=O)(=O)c1cc(-n2ccc(C)n2)cnc1-c1nc2cc(C(F)(F)F)ncc2n1C [Compound P102]
≥ 80%: percent effect (mortality or growth inhibition) at 200 ppm [1] | mortality at 200 ppm [2] | percent control (mortality, anti-feedant effect or growth inhibition) at 200 ppm [7] | mortality at 200 ppm [3] | mortality at 200 ppm [4] | mortality at 24 ppm [5]

CCS(=O)(=O)c1cc(-c2nccc(OC)n2)cnc1-c1nc2cc(C(F)(F)F)ncc2n1C [Compound P104]
≥ 80%: percent effect (mortality or growth inhibition) at 200 ppm [1] | mortality at 200 ppm [2] | percent control (mortality, anti-feedancy or growth inhibition) at 12.5 ppm [6] | percent control (mortality, anti-feedant effect or growth inhibition) at 200 ppm [7] | mortality at 200 ppm [3] | mortality at 200 ppm [4] | mortality at 200 ppm [9]

CCS(=O)(=O)c1cc(-c2cc(OC)ccn2)cnc1-c1nc2cc(C(F)(F)F)ncc2n1C [Compound P109]
≥ 80%: percent effect (mortality or growth inhibition) at 200 ppm [1] | mortality at 200 ppm [2] | percent control (mortality, anti-feedant effect or growth inhibition) at 200 ppm [7] | mortality at 200 ppm [3] | mortality at 200 ppm [4] | mortality at 24 ppm [5]
